Measured values from patent US12084443B2, “Process of preparing a PD-1/PD-L1 inhibitor” (Incyte Corporation, priority 2020, dated 2024).

Biological target: T1, PD-1/PD-L1 protein/protein interaction (Homo sapiens, UniProt Q9NZQ7)
T1 construct: Recombinant human PD-L1 protein (19-238) with a His-tag at the C-terminus; purchased AcroBiosystems PD1-H5229 (PD-L1); PD1-H5257 (PD-1)
Assay: PD-1/PD-L1 Homogeneous Time-Resolved Fluorescence (HTRF) binding assay
Settings: recombinant human PD-1 (25-167) Fc tag and PD-L1 (19-238) His-tag, 25° C., PBS pH 7.4
Experimental: Example A. PD-1/PD-L1 Homogeneous Time-Resolved Fluorescence (HTRF) Binding Assay The assays were conducted in a standard black 384-well polystyrene plate with a final volume of 20 μL. Inhibitors were first serially diluted in DMSO and then added to the plate wells before the addition of other reaction components. The final concentration of DMSO in the assay was 1%. The assays were carried out at 25° C. in the PBS buffer (pH 7.4) with 0.05% Tween-20 and 0.1% BSA. Recombinant human PD-L1 protein (19-238) with a His-tag at the C-terminus was purchased from AcroBiosystems (PD1-H5229). Recombinant human PD-1 protein (25-167) with Fc tag at the C-terminus was also purchased from AcroBiosystems (PD1-H5257). PD-L1 and PD-1 proteins were diluted in the assay buffer and 10 μL was added to the plate well. Plates were centrifuged and proteins were preincubated with inhibitors for 40 minutes. The incubation was followed by the addition of 10 μL of HTRF detection buffer supplemented with Europium cryptate-labeled anti-human IgG (PerkinElmer-AD0212) specific for Fc and anti-His antibody conjugated to SureLight®-Allophycocyanin (APC, PerkinElmer-AD0059H). After centrifugation, the plate was incubated at 25° C. for 60 min. before reading on a PHERAstar FS plate reader (665 nm/620 nm ratio). […]

T1 sequence (Q9NZQ7 19-238): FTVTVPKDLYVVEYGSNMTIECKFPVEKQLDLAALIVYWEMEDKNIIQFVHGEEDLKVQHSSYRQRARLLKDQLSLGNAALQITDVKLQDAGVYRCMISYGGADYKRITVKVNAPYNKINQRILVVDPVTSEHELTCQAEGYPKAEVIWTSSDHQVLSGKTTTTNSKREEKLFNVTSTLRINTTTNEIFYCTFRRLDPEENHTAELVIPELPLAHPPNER

IC50: ≤ 10 nM
SMILES: Cc1c(Nc2nccc3cc(CN4CC[C@@H](O)C4)cnc23)cccc1-c1cccc(-c2nc3cc(CN4CC[C@@H](C(=O)O)C4)cc(C#N)c3o2)c1C [Compound 1, (R)-1-((7-cyano-2-(3′-((3-(((R)-3-hydroxypyrrolidin-1-yl)methyl)-1,7-naphthyridin-8-yl)amino)-2,2′-dimethyl-[1,1′-biphenyl]-3-yl)benzo[d]oxazol-5-yl)methyl)pyrrolidine-3-carboxylic acid]
